Source: US8461389B2, “Psycho-pharmaceuticals” (University College Dublin, National University of Ireland, …, priority 2008, dated 2013)

Assays:
C57B16 mice [1] = experiment: Novel object recognition (NOR) test; assay type: in vivo
Description: Before training the animals with objects, they are first allowed to acclimatize to the testing environment, a white Perspex box (30 cm by 20 cm) equipped with an overhead camera. After an acclimation session, the animals are ready for the training stage. This stage involves the introduction of two identical objects (Lego Duplo) to the environment before allowing the rodent to explore for a period of five minutes: Following the training period, the rodent is removed from the environment for a delay period which can range from 5 minutes to 24 hours, depending on the type of memory being tested. After the delay, the rodent is returned to the arena, where one of the original objects has been replaced by a new one, such as a glass container.
The amount of time that the rodents spends exploring each object can be calculated by hand or by using a computer program receiving input from the overhead camera. The literature describes a variety of methods for analyzing results. One technique involves dividing the time spent exploring the novel object by the total time spent exploring either object, yielding % novel exploration. An alternative technique is used to calculate the discrimination ratio, defined as the difference in exploration time for the objects divided by total exploration time. The method of analysis should be suited to the specific experimental setup. […]

[2] = system: BDNF (Brain-derived neurotrophic factor); experiment: BDNF levels in brain regions by ELISA after sub-chronic administration; assay type: in vivo, mice; details: sub-chronic 7 day treatment, FIG. 9D
Method: Neurotrophic factor concentration was determined by using an ELISA purchased from Promega Inc;
The Experimental protocol employed in the behavioural evaluation of Captodiamine is set out as follows: Three separate cohorts of C57B16 mice were employed in the behavioural evaluation of Captodiamine (see FIG. 7). Cohort 1 was used to evaluate the drug effect on prepulse inhibition, spatial learning, open-field and novel object recognition. Cohort 2 was used to evaluate drug effects on the forced swim test and the elevated X-maze. The behavioural tests were administered in sequence as per day number indicated in the bar of FIG. 7. The drug was administered by the intraperitoneal route and on the day of training the drug was administered after the behavioural analysis. Cohort 3 was used for analysis of growth factor (GF) expression (such as, for example, Brain Derived Neurotrophic Factor (BDNF and Glial Derived Neurotrophic Factor (GDNF). The brains were removed immediately after sacrifice, the relevant brain areas dissected, homogenised and stored at −80° C. until analysis. Captodiamine/UCD-0620 was administered at doses of 3 and 5 mg/kg. The compound was administered once daily, via the intraperitoneal route, for 7 days prior to testing and the animals were drug-free at time of training.
The Structure (FIG. 9A), receptor affinity (FIG. 9B), pharmacokinetics (FIG. 9C) and growth factor modulation (FIG. 9D) of Captodiamine are provided. Analysis of receptor affinities was performed by Novascreen™ and those displacing >20% of the natural ligand are indicated by the filled boxes. Blood levels of Captodiamine were determined by GC mass spectroscopy. In separate samples taken from a cannulated jugular at increasing time intervals following a single intraperitoneal injection of tha drug (5 mg/kg). Growth factor analysis was performed using tissue homogenates and ELISA assays specific for each growth factor (Promega). Values were analysed using a Student t-test and those with a p value<0.05 were accepted as significant and are indicated with an asterisk.

C57B16 mice [3] = experiment: Pre-pulse inhibition of the startle response; assay type: in vivo; details: i.p. once daily for 7 days; FIG. 5
Description: An example of one way of testing for PPI: In the prepulse inhibition (PPI) procedure, the rodent is placed in a small chamber and exposed to a brief pulse of noise. The test is used to assess the subject's ability to “gate” or filter environmental information. In the acoustic (startle model) of sensorimotor gating, a weak acoustic stimulus (ie, the prepulse) decreases the reflexive flinching response (startle) produced by a second, more intense, stimulus (the pulse).
The main three parts of the procedure are prepulse, startle stimulus, and startle reflex. Different prepulse-to-pulse intervals, or lead intervals, are used: 30, 60, 120, 240 and 480 ms. Lead interval counts from the start of prepulse to the start of the pulse. With the interval exceeding 500 ms, prepulse facilitation, such as increased response, is most likely to follow. Burst of white noise is usually used as acoustic startle stimulus. Typical durations are 20 ms for prepulse and 40 ms for pulse. […] Startle response is measured in rodents using the so-called automated “startle chambers” or “stabilimeter chambers”, with detectors recording whole-body reaction. In humans, the movements of oculomotor muscles (“eye-blink reflex” or “eye-blink response” assessed using electromyographic recording of orbicularis oculi muscle and by oculography) could be used as a measure. […]

[4] = system: patients with depressive states; details: Azoulay, Le Bezu and Leyritz 1956; cited from earlier work

CCCCSc1ccc(C(SCCN(C)C)c2ccccc2)cc1 (stereo not shown) [Captodiamine, 2-[(4-butylsulfanylphenyl)-phenyl-methyl]sulfanyl-N,N-dimethyl-ethanamin]
time investigating objects during the training phase, Novel Object Recognition Task (C57B16 mice [1]; 3 mg/kg dose, one-tailed t-test): significantly longer investigating objects
time exploring objects in training (day 1) and testing (day 2) phases, NOR (C57B16 mice [1]; FIG. 8 right hand panel): more time exploring objects
BDNF expression levels, hippocampus [2]: no effect
BDNF expression levels, hypothalamus [2]: significantly increased
BDNF expression levels, prefrontal cortex [2]: no effect
pre-pulse inhibition of startle (C57B16 mice [3]): no effect
clinical usefulness in depressive states resistant to largactil [4]: useful in only one patient
